# Assays:
# [1] = molecular target: GDP-bound HRAS wild-type protein (Homo sapiens, UniProt P01112); assay: Binding to HRAS by surface plasmon resonance (SPR), Single Cycle Kinetics; conditions: SPR; GDP-bound HRAS wild-type protein vs GDP-bound KRAS wild-type protein; KD ratio class
# [2] = molecular target: GDP-bound NRAS wild-type protein (Homo sapiens, UniProt P01111); assay: Binding to NRAS by surface plasmon resonance (SPR), Single Cycle Kinetics; conditions: SPR; GDP-bound NRAS wild-type protein vs GDP-bound KRAS wild-type protein; KD ratio class
# [3] = system: human lung cancer strain NCI-H441;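 also: cell proliferation inhibition after four days measured by CellTiter-Glo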
# [4] = molecular target: GDP-bound KRAS wild-type protein (Homo sapiens, UniProt P01116); assay: Binding to KRAS by surface plasmon resonance (SPR), Single Cycle Kinetics; conditions: SPR, Single Cycle Kinetics, 1:1 binding model; GDP-bound KRAS wild-type protein; read-out: KRAS KD
# Sequence of GDP-bound KRAS wild-type protein (P01116 whole entry): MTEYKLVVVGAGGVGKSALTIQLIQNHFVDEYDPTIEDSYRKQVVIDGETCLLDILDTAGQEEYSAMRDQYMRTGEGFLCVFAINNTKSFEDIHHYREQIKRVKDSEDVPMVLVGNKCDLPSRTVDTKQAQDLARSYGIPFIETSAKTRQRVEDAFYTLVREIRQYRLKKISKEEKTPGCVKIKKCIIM
# Sequence of GDP-bound HRAS wild-type protein (P01112 whole entry): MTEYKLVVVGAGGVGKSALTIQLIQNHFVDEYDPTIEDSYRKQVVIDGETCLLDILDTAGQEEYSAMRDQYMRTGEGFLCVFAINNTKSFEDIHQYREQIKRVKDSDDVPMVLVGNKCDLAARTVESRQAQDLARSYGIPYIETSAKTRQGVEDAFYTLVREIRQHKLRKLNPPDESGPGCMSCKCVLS
# Sequence of GDP-bound NRAS wild-type protein (P01111 whole entry): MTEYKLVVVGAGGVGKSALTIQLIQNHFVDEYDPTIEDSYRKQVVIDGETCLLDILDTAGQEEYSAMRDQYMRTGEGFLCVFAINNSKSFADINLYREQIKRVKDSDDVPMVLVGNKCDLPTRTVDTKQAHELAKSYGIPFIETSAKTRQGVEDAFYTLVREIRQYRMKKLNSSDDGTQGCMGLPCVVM
IC50 [3] [nM],Kd [4] [nM],Compound,HRAS/KRAS (ratio of KD value for HRAS to KD value for KRAS) [1],NRAS/KRAS (ratio of KD value for NRAS to KD value for KRAS) [2]
53.5,0.13,CCO[C@@H]1C[C@H]2C(=O)NC3(CCC3)C(=O)N(C)[C@@H](C3CCCC3)C(=O)N(C)[C@H](C(=O)N(C)C)CC(=O)N(C)[C@@H](CC)C(=O)N[C@@H](C(C)C)C(=O)N(C)CC(=O)N(C)[C@H]3C/C=C\CCN(C3=O)[C@@H](Cc3ccc(C(F)(F)F)cc3)C(=O)N(C)CC(=O)N[C@@H](CCc3cc(F)c(C(F)(F)F)c(F)c3)C(=O)N2C1 [PP1270],B (a compound having 3 or more and less than 10 is denoted as B),A (a compound having 10 or more and less than 20 is denoted as A)
90.7,0.054,"CC[C@H](C)[C@@H]1NC(=O)[C@H](C)N(C)C(=O)C[C@@H](C(=O)N(C)C)N(C)C(=O)[C@H](C2CCCC2)N(C)C(=O)C2(CCC2)NC(=O)[C@@H]2CCCN2C(=O)[C@H](CCc2cc(F)c(C(F)(F)F)c(F)c2)NC(=O)CN(C)C(=O)[C@H](Cc2ccc(C(F)(F)F)cc2)N2CC/C=C\C[C@@H](C2=O)N(C)C(=O)CN(C)C1=O [PP1271, (2S,8S,14S,20S,23S,27S,30S,36S,38Z)-20-cyclopentyl-8-[2-[3,5-difluoro-4-(trifluoromethyl)phenyl]ethyl]-N,N,4,19,22,26,27,32,35-nonamethyl-30-[(1S)-1-methylpropyl]-3,6,9,15,18,21,25,28,31,34,42-undecaoxo-2-[[4-(trifluoromethyl)phenyl]methyl]spiro[1,4,7,10,16,19,22,26,29,32,35-undecazatricyclo[34.5.1.0^10,14]dotetracont-38-ene-17,1′-cyclobutane]-23-carboxamide]",A (a compound having 10 or more and less than 20 is denoted as A),AA (a compound having 20 or more is denoted as AA)
24,0.11,"CC[C@H](C)[C@@H]1NC(=O)[C@H](CC(C)C)N(C)C(=O)C[C@@H](C(=O)N(C)C)N(C)C(=O)[C@H](C2CCCC2)N(C)C(=O)C2(CCC2)NC(=O)[C@@H]2CCCN2C(=O)[C@H](CCc2cc(F)c(C(F)(F)F)c(F)c2)NC(=O)CN(C)C(=O)[C@H](Cc2ccc(C(F)(F)F)cc2)N2CC/C=C\C[C@@H](C2=O)N(C)C(=O)CN(C)C1=O [PP1272, (2S,8S,14S,20S,23S,27S,30S,36S,38Z)-20-cyclopentyl-8-[2-[3,5-difluoro-4-(trifluoromethyl)phenyl]ethyl]-27-isobutyl-N,N,4,19,22,26,32,35-octamethyl-30-[(1S)-1-methylpropyl]-3,6,9,15,18,21,25,28,31,34,42-undecaoxo-2-[[4-(trifluoromethyl)phenyl]methyl]spiro[1,4,7,10,16,19,22,26,29,32,35-undecazatricyclo[34.5.1.0^10,14]dotetracont-38-ene-17,1′-cyclobutane]-23-carboxamide]",A (a compound having 10 or more and less than 20 is denoted as A),A (a compound having 10 or more and less than 20 is denoted as A)
16.5,0.12,"CC[C@H](C)[C@@H]1NC(=O)[C@H](CC)N(C)C(=O)C[C@@H](C(=O)N(C)C)N(C)C(=O)[C@H](C2CCCC2)N(C)C(=O)C2(CCCC2)NC(=O)[C@@H]2CCCN2C(=O)[C@H](CCc2cc(F)c(C(F)(F)F)c(F)c2)NC(=O)CN(C)C(=O)[C@H](Cc2ccc(C(F)(F)F)cc2)N2CC/C=C\C[C@@H](C2=O)N(C)C(=O)CN(C)C1=O [PP1273, (2S,8S,14S,20S,23S,27S,30S,36S,38Z)-20-cyclopentyl-8-[2-[3,5-difluoro-4-(trifluoromethyl)phenyl]ethyl]-27-ethyl-N,N,4,19,22,26,32,35-octamethyl-30-[(1S)-1-methylpropyl]-3,6,9,15,18,21,25,28,31,34,42-undecaoxo-2-[[4-(trifluoromethyl)phenyl]methyl]spiro[1,4,7,10,16,19,22,26,29,32,35-undecazatricyclo[34.5.1.0^10,14]dotetracont-38-ene-17,1′-cyclopentane]-23-carboxamide]",B (a compound having 3 or more and less than 10 is denoted as B),A (a compound having 10 or more and less than 20 is denoted as A)

# Second part, the compound before the results:
Compound,IC50 [3] [nM],Kd [4] [nM],HRAS/KRAS (ratio of KD value for HRAS to KD value for KRAS) [1],NRAS/KRAS (ratio of KD value for NRAS to KD value for KRAS) [2]
CCO[C@@H]1C[C@H]2C(=O)NC3(CCC3)C(=O)N(C)[C@@H](C3CCCC3)C(=O)N(C)[C@H](C(=O)N(C)C)CC(=O)N(C)[C@@H](COCC(F)(F)F)C(=O)N[C@@H]([C@@H](C)CC)C(=O)N(C)CC(=O)N(C)[C@H]3C/C=C\CCN(C3=O)[C@@H](Cc3ccc(C(F)(F)F)cc3)C(=O)N(C)CC(=O)N[C@@H](CCc3cc(F)c(C(F)(F)F)c(F)c3)C(=O)N2C1 [PP1267],10.8,0.046,A (a compound having 10 or more and less than 20 is denoted as A),A (a compound having 10 or more and less than 20 is denoted as A)
"CCO[C@@H]1C[C@H]2C(=O)NC3(CCC3)C(=O)N(C)[C@@H](C3CCCC3)C(=O)N(C)[C@H](C(=O)N(C)C)CC(=O)N(C)[C@@H](COC3CC3)C(=O)N[C@@H]([C@@H](C)CC)C(=O)N(C)CC(=O)N(C)[C@H]3C/C=C\CCN(C3=O)[C@@H](Cc3ccc(C(F)(F)F)cc3)C(=O)N(C)CC(=O)N[C@@H](CCc3cc(F)c(C(F)(F)F)c(F)c3)C(=O)N2C1 [PP1268, (2S,8S,12R,14S,20S,23S,27S,30S,36S,38Z)-20-cyclopentyl-27-(cyclopropoxymethyl)-8-[2-[3,5-difluoro-4-(trifluoromethyl)phenyl]ethyl]-12-ethoxy-N,N,4,19,22,26,32,35-octamethyl-30-[(1S)-1-methylpropyl]-3,6,9,15,18,21,25,28,31,34,42-undecaoxo-2-[[4-(trifluoromethyl)phenyl]methyl]spiro[1,4,7,10,16,19,22,26,29,32,35-undecazatricyclo[34.5.1.0^10,14]dotetracont-38-ene-17,1′-cyclobutane]-23-carboxamide]",12.1,0.045,A (a compound having 10 or more and less than 20 is denoted as A),A (a compound having 10 or more and less than 20 is denoted as A)
"CCO[C@@H]1C[C@H]2C(=O)NC3(CCC3)C(=O)N(C)[C@@H](C3CCCC3)C(=O)N(C)[C@H](C(=O)N(C)C)CC(=O)N(C)[C@@H](CC)C(=O)N[C@@H](C3CCC3)C(=O)N(C)CC(=O)N(C)[C@H]3C/C=C\CCN(C3=O)[C@@H](Cc3ccc(C(F)(F)F)cc3)C(=O)N(C)CC(=O)N[C@@H](CCc3cc(F)c(C(F)(F)F)c(F)c3)C(=O)N2C1 [PP1269, (2S,8S,12R,14S,20S,23S,27S,30S,36S,38Z)-30-cyclobutyl-20-cyclopentyl-8-[2-[3,5-difluoro-4-(trifluoromethyl)phenyl]ethyl]-12-ethoxy-27-ethyl-N,N,4,19,22,26,32,35-octamethyl-3,6,9,15,18,21,25,28,31,34,42-undecaoxo-2-[[4-(trifluoromethyl)phenyl]methyl]spiro[1,4,7,10,16,19,22,26,29,32,35-undecazatricyclo[34.5.1.0^10,14]dotetracont-38-ene-17,1′-cyclobutane]-23-carboxamide]",29,0.091,B (a compound having 3 or more and less than 10 is denoted as B),A (a compound having 10 or more and less than 20 is denoted as A)

# Source: patent US20240158446A1, “CYCLIC COMPOUND HAVING SELECTIVE INHIBITORY ACTION ON KRAS OVER HRAS AND NRAS” (CHUGAI SEIYAKU KABUSHIKI KAISHA, priority 2021, published 2024)
